We go through two compounds from US20180163179A1, “METHOD FOR IMPROVEMENT OF DRUG METABOLISM OF HUMAN STEM CELL-DERIVED HEPATOCYTES” (KOREA ADVANCED INSTITUTE OF SCIENCE AND TECHNOLOGY, priority 2015, published 2018).

In data set [1] the test system is human embryonic stem cell-derived hepatocytes (hES-Hep). Conditions: hES-Hep treated with alcohol, real-time PCR, FIG. 3. For orientation: Real-time PCR tracks product formation cycle by cycle.
Method: Particularly, total RNA was extracted from the adult Hep, Fetal-Hep, and human embryonic stem cell-derived hepatocytes by using Trizol reagent (Invitrogen), followed by cDNA synthesis by using amfi-rivert II cDNA synthesis Master Mix (Gendepot) according to the manufacturer's protocol. Genes in interest were amplified from the transcript by using the primers listed in the Table 1 below by using SYBR green real-time PCR master mix (Toyobo, Japan). The real-time PCR was performed by using Bio-rad CFX96 real-time PCR detection system (Bio-rad). The gene expression level was calculated by ΔΔCt method and by using β-actin as a denominator of the gene expression. Compared with the control gene expression, the obtained value was presented as fold change.
Data set [2] has the same test system. The conditions noted are these: hES-Hep treated with alcohol (200 mM ethanol, 24 hours), without co-culture, FIG. 6.
Method: 2×10^5 mouse hepatic stellate cells were cultured on the plate (Corning, USA) with 8 μm holes coated with human embryonic stem cell-derived hepatocytes cultured in DMEM supplemented with 10% FBS. The cell ratio of mouse hepatic stellate cells to human embryonic stem cell-derived hepatocytes was maintained as 1:2. […] 48 hours later, the cells and the medium were collected (FIG. 4).
Human embryonic stem cell-derived hepatocytes were co-cultured with mouse hepatic stellate cells. Then, TUNEL assay was performed to investigate apoptosis therein.
Apoptosis was investigated by using In Situ Cell Death Detection Kit (Fluorescence, Roche). Nucleus of the cell was stained with DAPI, followed by visualization using Leica DMI 4000B automatic vertical microscope system (Germany) equipped with Leica EL6000 and Leica CTR 4000 CCD camera. Computer assisted images were analyzed with Leica Application Suite Advanced Fluorescence (LAS AF, Leica).
For data set [3] the test system is unchanged. Put plainly: Gene expression (real time PCR) after the treatment of retinoic acid. It counts as cell-based. The conditions noted are these: 1 ump all-trans retinoic acid or 9-cis-retinoic acid, culture 12~24 hours, FIG. 16. The procedure: Human embryonic stem cell-derived hepatocytes were treated with retinoic acid, followed by investigation of the gene expressions of alcohol metabolism associated enzymes, drug metabolism associated enzymes, and anti-oxidant enzymes.
Particularly, the human embryonic stem cell-derived hepatocytes differentiated by the same manner as described in Example 1 were treated with 1 ump all-trans retinoic acid or 9-cis-retinoic acid, followed by culture for 12˜24 hours. Then, real time PCR was performed by the same manner as described in Experimental Example <1˜3> in order to examine the expressions of alcohol metabolism associated enzymes (AHD1a, ADH1b, ADH1c, and CYP2E1), drug metabolism associated enzymes (CYP2C9, CYP2D6, and CYP3A4), and anti-oxidant enzymes (catalase and Mn-SOD).

Data set [4] has the same test system. In words: Gene expression (real time PCR) after the treatment of retinoic acid and ethanol. The conditions noted are these: 1 ump all-trans retinoic acid and 0.2 M EtOH, culture 24 hours, FIG. 17. It counts as cell-based. As for the experimental part: Human embryonic stem cell-derived hepatocytes were treated with retinoic acid and ethanol, followed by investigation of the gene expressions of alcohol metabolism associated enzymes, drug metabolism associated enzymes, and anti-oxidant enzymes.
Particularly, the human embryonic stem cell-derived hepatocytes differentiated by the same manner as described in Example 1 were treated with 1 ump all-trans retinoic acid and 0.2 M EtOH, followed by culture for 24 hours. Then, real time PCR was performed by the same manner as described in Experimental Example <1-3> in order to examine the expressions of alcohol metabolism associated enzymes (AHD1a, ADH1b, ADH1c, and CYP2E1) and anti-oxidant enzymes (catalase and Mn-SOD).

For data set [5] the test system is unchanged. In words: Immunocytochemistry (immunofluorescence) of CYP2E1 after the treatment of retinoic acid. It counts as cell-based. The conditions noted are these: 1 ump all-trans retinoic acid and 0.2 M EtOH, culture 24 hours, anti-CYP2E1 antibody, FIG. 18. The procedure: Human embryonic stem cell-derived hepatocytes were treated with retinoic acid, followed by immunofluorescence in order to examine the expression of CYP2E1, the alcohol metabolism associated enzyme.
Particularly, the human embryonic stem cell-derived hepatocytes differentiated by the same manner as described in Example 1 were treated with 1 ump all-trans retinoic acid and 0.2 M EtOH, followed by culture for 24 hours. The cells were fixed with 4% paraformaldehyde. […] Blocking was performed by treating the cells with 5% goat serum at 37° C. for 1 hour. The cells were stained with anti-CYP2E1 antibody (Millipore, Germany).

Take `CCO` [alcohol, ethanol]: the “expression of alcohol metabolism associated enzymes” value in data set [1] is listed as “up-regulated”. Further, the “apoptosis (TUNEL)” value in data set [2] is recorded as “increased”.
Consider `CC1=C(/C=C/C(C)=C/C=C/C(C)=C/C(=O)O)C(C)(C)CCC1` [retinoic acid], for which the “expressions of alcohol metabolism associated enzymes (AHD1a, ADH1b, ADH1c, CYP2E1), drug metabolism associated enzymes (CYP2C9, CYP2D6, CYP3A4) and anti-oxidant enzymes (catalase, Mn-SOD)” value in data set [3] is “all increased”. Besides, the “expressions of alcohol metabolism associated enzymes (AHD1a, ADH1b, ADH1c, CYP2E1) and anti-oxidant enzymes (catalase, Mn-SOD)” value in data set [4] was “all increased”. For the same compound, the “expression of CYP2E1 (immunofluorescence)” value in data set [5] is on record as “significantly increased”.
